One assay deals with T1, Carbonic anhydrase 4 (Bos taurus, UniProt Q95323).
T1 sequence (Q95323 whole entry): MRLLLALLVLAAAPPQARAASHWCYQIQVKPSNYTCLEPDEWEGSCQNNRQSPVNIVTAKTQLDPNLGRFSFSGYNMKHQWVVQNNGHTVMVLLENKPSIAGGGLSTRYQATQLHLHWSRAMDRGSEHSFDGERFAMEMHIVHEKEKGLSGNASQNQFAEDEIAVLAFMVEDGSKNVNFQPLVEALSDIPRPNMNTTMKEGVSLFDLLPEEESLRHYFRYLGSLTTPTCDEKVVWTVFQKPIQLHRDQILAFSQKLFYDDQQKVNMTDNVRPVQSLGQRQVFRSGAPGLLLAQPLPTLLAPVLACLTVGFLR
Chain of Carbonic anhydrase 4 (Homo sapiens, UniProt P22748) (P22748 whole entry): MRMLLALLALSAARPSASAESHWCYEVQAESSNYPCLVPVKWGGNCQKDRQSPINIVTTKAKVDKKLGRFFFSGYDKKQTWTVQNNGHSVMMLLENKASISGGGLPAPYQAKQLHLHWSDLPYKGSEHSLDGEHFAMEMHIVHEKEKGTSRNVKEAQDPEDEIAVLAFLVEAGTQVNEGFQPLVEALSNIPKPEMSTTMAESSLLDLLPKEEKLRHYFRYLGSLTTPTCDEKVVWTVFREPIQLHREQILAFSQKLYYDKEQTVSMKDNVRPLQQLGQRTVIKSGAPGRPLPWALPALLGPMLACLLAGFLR
Description: Inhibitory activity against bovine carbonic anhydrase IV (bCAIV)
Molecule `Nc1ccc(S(=O)(=O)NCc2ccc(S(N)(=O)=O)cc2)cc1` returned a Ki of 50 nM. On the same count and under the same terms, the value for `Nc1cc(C(F)(F)F)c(S(N)(=O)=O)cc1S(N)(=O)=O` [2,4-DISULFAMYLTRIFLUOROMETHYLANILINE] was 240 nM; that for `Cc1ccc(-c2cc(C(F)(F)F)nn2-c2ccc(S(N)(=O)=O)cc2)cc1` [CELECOXIB] was 290 nM.

The next assay addresses Carbonic anhydrase 4 (Homo sapiens, UniProt P22748).
Description: Inhibitory activity against human carbonic anhydrase IV (hCAIV)
As for `Nc1ccc(S(=O)(=O)NCc2ccc(S(N)(=O)=O)cc2)cc1`, affinity was put at a Ki of 84 nM. Still for that read-out and setting: the figure for `Nc1ccc(S(N)(=O)=O)cc1I` is 920 nM; for `Nc1ccc(S(N)(=O)=O)cc1Br` it is 96 nM; for `Nc1cccc(S(N)(=O)=O)c1` it is 7750 nM. Same read-out and setting: the figure for `Nc1ccc(S(N)(=O)=O)cc1F` is 910 nM; for `Nc1ccc(S(N)(=O)=O)cc1Cl` it is 450 nM; for `NNc1ccc(S(N)(=O)=O)cc1` it is 7700 nM. Turning to `Cc1ccc(-c2cc(C(F)(F)F)nn2-c2ccc(S(N)(=O)=O)cc2)cc1` [CELECOXIB], the inhibitory constant (Ki) was found to be 880 nM. `NCc1ccc(S(N)(=O)=O)cc1` [MAFENIDE] showed a Ki of 8600 nM. On the same count and under the same terms, the figure for `Nc1ccc(S(N)(=O)=O)cc1` [SULFANILAMIDE] is 9760 nM; for `CC1(C)O[C@@H]2[C@@H](CO[C@@]3(COS(N)(=O)=O)OC(C)(C)O[C@@H]23)O1` [TOPIRAMATE] it is 4900 nM.

The term Ki denotes a measure of affinity in units of concentration, obtained from inhibition or displacement.
